Measured values published in patent US9029092B2, “Solution phase homogeneous assays” (Beckman Coulter, Inc., priority 2009, dated 2015).

Test system: PSA
Assay: Assay of PSA with direct-labeled sbp's (Ab1-AK11, Ab2-HRP) with and without SSIA
Format: biochemical, human
Conditions: 600 μM ascorbic acid solution
Description: The Ab1-AK11 conjugate was provided in PBS, pH 7.4 at 10 μg/ml. The Ab2-HRP conjugate was provided in PBS, pH 7.4 at 0.25 μg/ml. […] For comparison without SSIA, in a second reaction vessel, 25 μl of Ab1-AK11 conjugate, 25 μl of water, 25 μl of Ab2-HRP conjugate were added to 25 μl of sample and incubated for 15 minutes.
Each sample was analyzed according to the above assay method in triplicate. The RLU data collected for each assayed sample during the time interval of 495 milliseconds starting 125 milliseconds from start of trigger solution introduction into the reaction vessel was summed for each individual run, averaged over the triplicates for each sample and presented in Table 13. A ratio of signal to noise (S/S0) was calculated at each concentration value.

O=C1O[C@H]([C@@H](O)CO)C(O)=C1O [Ascorbic Acid]
RLU, With SSIA (PSA 0.0 ng/mL): 180 RLU
S/S0, With SSIA (PSA 0.0 ng/mL): 1.0
RLU, With SSIA (PSA 0.4 ng/mL): 324 RLU
S/S0, With SSIA (PSA 0.4 ng/mL): 1.8
RLU, With SSIA (PSA 7.0 ng/mL): 3032 RLU
S/S0, With SSIA (PSA 7.0 ng/mL): 16.8
RLU, With SSIA (PSA 101.6 ng/mL): 23119 RLU
S/S0, With SSIA (PSA 101.6 ng/mL): 128.4
